Measurements taken from patent publication US11752125B2, “Anti-neuroinflammatory and protective compounds in Achillea fragrantissima” (THE STATE OF ISRAEL MINISTRY OF AGRICULTURE & RURAL …, priority 2013, dated 2023).

Tested on: astrocytes
Experiment: Cellular antioxidant activity (ABAP peroxyl radicals) in astrocytes
Type: cell-based
Settings: for effect on ABAP-generated peroxyl radical (ROS) fluorescence: astrocytes, ABAP 0.6 mM
Protocol: In the cellular antioxidant activity (CAA) assay, cell viability was determined by a modification of the crystal violet assay (Kueng et al., 1989) as follows. At the end of cell treatments, cells were fixed with 150 μL of 5% (v/v) formaldehyde (in PBS) for 15 min at room temperature. Plates were washed by submersion in de-ionized water, dried and stained for 15 min with 150 μL of a 1% crystal violet solution. After careful aspiration of the crystal violet solution the plates were washed with de-ionized water, and dried prior to the solubilization of the bound dye with 150 μL of a 33% aqueous glacial acetic acid solution. The optical density of the plates was measured at 540 nm (with a 690 nm reference filter) in a microplate spectrophotometer.
Intracellular ROS production was detected using the non-fluorescent cell permeating compound, 2′7′-dichlorofluorescein diacetate (DCF-DA). DCF-DA is hydrolyzed by intracellular esterases and then oxidized by ROS to a fluorescent compound 2′-7′-DCF. Peroxyl radicals are generated by thermolysis of 2,2′-Azobis(amidinopropane) (ABAP) at physiological temperature. ABAP decomposes at approximately 1.36×10^−6s^−1 at 37° C., producing at most 1×10^12 radicals/mL/s (Bowry and Stocker, 1993; Niki et al., 1986; Thomas et al., 1997). Astrocytes (300,000 cells/well) were plated in DMEM containing 2% FBS, 8.4 mM HEPES, 2 mM glutamine, 100 U/mL penicillin and 100 μg/mL streptomycin, onto 24 well plates. In order to measure the ability of TTF to enter the cells and prevent the formation of dichlorofluorescein (DCF) by ABAP-generated peroxyl radicals, cells were incubated for 1 h with TTF. […] The fluorescence, which indicates ROS levels, was measured in a plate reader with excitation at 485 nm and emission at 520 nm.
2. […] Read “time 0” fluorescence (Ex: 485 nm and Em: 528 nm); 7. […] Read fluorescence at 3, 6, and 24 hr Ex: 485 nm and Em: 528 nm; 9. […]
Astrocytes were incubated with TTF or quercetin for 2 h. […] ABAP (0.6 mM) was added to the culture and the fluorescence intensity, representing ROS levels was measured. […]

Row | SMILES | effect on ABAP-generated peroxyl radical (ROS) fluorescence | cell viability in the cellular antioxidant activity assay (crystal violet, 20 h after ABAP)
1 | O=c1c(O)c(-c2ccc(O)c(O)c2)oc2cc(O)cc(O)c12 [quercetin, 3,3′,4′,5,7-Pentahydroxyflavone, reference compound] | similarly effective as TTF | 
2 | COc1cc(-c2oc3cc(OC)c(OC)c(O)c3c(=O)c2O)ccc1O [TTF, 3,5,4′-trihydroxy-6,7,3′-trimethoxyflavone] | moderated the increase in ROS-induced fluorescence | cell viability was not affected
